Results taken from patent publication US10130633B2, “Compounds” (BAYER PHARMA AKTIENGESELLSCHAFT, priority 2013, dated 2018).
Where two headings read alike, the source gives them in different places.

Key:
[1] = tested on: HEK293 FOP control reporter cell line; assay: HEK293 FOP control reporter assay; assay type: cell-based, human; conditions: read-out: HEK FOP IC50
Description: Measurement of luciferase expression was done as described for the constitutive active Wnt assay.
(§1) In a parallel approach, HEK293 cells were cotransfected with the FOP control vector and pcDNA3. The FOP vector is identical to the TOP construct, but it contains instead of functional TCF elements a randomized, non-functional sequence. For this transfection a stable transfected cell line was generated as well, based on selection with Geneticin (1 mg/ml).

[2] = tested on: constitutive active colorectal cancer cell (CRC) Wnt pathway; assay: HCT116 TOPFlash cellular reporter assay (Super TopFlash luciferase), constitutive active Wnt pathway; assay type: cell-based; conditions: Homo sapiens, HCT-116, 36 h, HCT116 TOP reporter cells, 36 hours incubation, luciferase expression
Description: In order to discover and characterize small molecules which inhibit the constitutive active colorectal cancer cell (CRC) Wnt pathway, a cellular reporter assay was employed. […] Stable transfectants were generated by cotransfection with pcDNA3 and selection of stable transfected cells with 1 mg/ml G418.

[3] = tested on: HCT116 FOP control reporter cell line; assay: HCT116 FOPFlash control reporter assay (FOP control vector, non-functional TCF elements); assay type: cell-based; conditions: Homo sapiens, HCT-116, 36 h, HCT116 FOP control reporter cells, 36 hours incubation, luciferase expression
Source text: as §1, with “HCT116” for “HEK293”, “well.” for “well, based on selection with Geneticin (1 mg/ml).”

SMILES	IC50 ([1]; Homo sapiens, HEK293, 16 h)	further results
C[C@@H](C(=O)Nc1cc(C(=O)Nc2ccc(-c3ccccc3F)nc2)ccc1OC(F)(F)F)N1CCOCC1 (single isomer, unassigned) [Example 9, N-[6-(2-fluorophenyl)pyridin-3-yl]-3-{[(2S)-2-(morpholin-4-yl)propanoyl]amino}-4-(trifluoromethoxy)benzamide or N-[6-(2-fluorophenyl)pyridin-3-yl]-3-{[(2R)-2-(morpholin-4-yl)propanoyl]amino}-4-(trifluoromethoxy)benzamide]	–	IC50 ([1]; HEK293 FOP control cells, EC50 concentration of recombinant Wnt-3a, 16 hours): 8.2 µM
O=C(CN1CCOCC1)Nc1cc(C(=O)Nc2ncc(-c3ccccc3)s2)ccc1OC(F)(F)F [Example 14, 3-[(morpholin-4-ylacetyl)amino]-N-(5-phenyl-1,3-thiazol-2-yl)-4-(trifluoromethoxy)benzamide]	≥ 50 µM	–
COc1ccc(NC(=O)c2ncc(-c3ccccc3)o2)cc1NC(=O)CN1CCOCC1 [Example 20, N-{4-methoxy-3-[(morpholin-4-ylacetyl)amino]phenyl}-5-phenyl-1,3-oxazole-2-carboxamide]	≥ 50 µM	–
O=C(CN1CCOCC1)Nc1cc(NC(=O)c2ccc(-c3cccc(F)c3F)nc2)ccc1OC(F)(F)F [Example 26, 6-(2,3-difluorophenyl)-N-{3-[(morpholin-4-ylacetyl)amino]-4-(trifluoromethoxy)phenyl}nicotinamide]	≥ 50 µM	–
O=C(CN1CCOCC1)Nc1cc(NC(=O)c2ccc(-c3cc(F)cc(F)c3)nc2)ccc1OC(F)(F)F [Example 27, 6-(3,5-difluorophenyl)-N-{3-[(morpholin-4-ylacetyl)amino]-4-(trifluoromethoxy)phenyl}nicotinamide]	≥ 50 µM	–
COc1ccc(-c2ccc(C(=O)Nc3ccc(OC)c(NC(=O)CN4CCOCC4)c3)s2)cc1 [Example 35, N-{4-methoxy-3-[(morpholin-4-ylacetyl)amino]phenyl}-5-(4-methoxyphenyl)thiophene-2-carboxamide]	≥ 50 µM	–
O=C(Nc1nnc(-c2ccccc2)s1)c1ccc(OC(F)F)c(NC(=O)C2(N3CCOCC3)CC2)c1 [Example 37, 4-(difluoromethoxy)-3-({[1-(morpholin-4-yl)cyclopropyl]carbonyl}amino)-N-(5-phenyl-1,3,4-thiadiazol-2-yl)benzamide]	≥ 50 µM	–
O=C(Nc1nnc(-c2ccccc2)s1)c1ccc(OC(F)F)c(NC(=O)C2(N3CCN(C4CC4)CC3)CC2)c1 [Example 38, 3-({[1-(4-cyclopropylpiperazin-1-yl)cyclopropyl]carbonyl}amino)-4-(difluoromethoxy)-N-(5-phenyl-1,3,4-thiadiazol-2-yl)benzamide]	≥ 50 µM	–
O=C(CN1CCN(C2CC2)CC1)Nc1cc(C(=O)Nc2nnc(-c3ccccc3)s2)ccc1OC(F)F [Example 41, 3-{[(4-cyclopropylpiperazin-1-yl)acetyl]amino}-4-(difluoromethoxy)-N-(5-phenyl-1,3,4-thiadiazol-2-yl)benzamide]	≥ 50 µM	–
COCc1ccc(C(=O)Nc2nnc(-c3ccccc3)s2)cc1NC(=O)C1(N2CCN(C3CC3)CC2)CC1 [Example 44, 3-({[1-(4-cyclopropylpiperazin-1-yl)cyclopropyl]carbonyl}amino)-4-(methoxymethyl)-N-(5-phenyl-1,3,4-thiadiazol-2-yl)benzamide]	≥ 50 µM	–
CN1CCN(C2(C(=O)Nc3cc(C(=O)Nc4nnc(-c5ccccc5)s4)ccc3CS(C)(=O)=O)CC2)CC1 [Example 49, 3-({[1-(4-methylpiperazin-1-yl)cyclopropyl]carbonyl}amino)-4-[(methylsulfonyl)methyl]-N-(5-phenyl-1,3,4-thiadiazol-2-yl)benzamide]	≥ 50 µM	–
O=C(Nc1nnc(-c2ccccc2)s1)c1ccc(OC(F)(F)F)c(NC(=O)C2(N3CCOCC3)CC2)c1 [Example 50, 3-({[1-(morpholin-4-yl)cyclopropyl]carbonyl}amino)-N-(5-phenyl-1,3,4-thiadiazol-2-yl)-4-(trifluoromethoxy)benzamide]	≥ 50 µM	–
O=C(Nc1nnc(-c2ccccc2)s1)c1ccc(OC(F)(F)F)c(NC(=O)C2(N3CCN(C4CC4)CC3)CC2)c1 [Example 51, 3-({[1-(4-cyclopropylpiperazin-1-yl)cyclopropyl]carbonyl}amino)-N-(5-phenyl-1,3,4-thiadiazol-2-yl)-4-(trifluoromethoxy)benzamide]	≥ 50 µM	–
O=C(CN1CCN(C2CC2)CC1)Nc1cc(C(=O)Nc2nnc(-c3ccccc3)s2)ccc1OC(F)(F)F [Example 53, 3-{[(4-cyclopropylpiperazin-1-yl)acetyl]amino}-N-(5-phenyl-1,3,4-thiadiazol-2-yl)-4-(trifluoromethoxy)benzamide]	≥ 50 µM	–
CC(C(=O)Nc1cc(C(=O)Nc2nnc(-c3ccccc3)s2)ccc1OC(F)(F)F)N1CCN(C)CC1 (centres unmarked) [Example 58, 3-{[2-(4-methylpiperazin-1-yl)propanoyl]amino}-N-(5-phenyl-1,3,4-thiadiazol-2-yl)-4-(trifluoromethoxy)benzamide]	≥ 50 µM	–
O=C(Nc1ccc(OC(F)(F)F)c(NC(=O)C2(N3CCOCC3)CC2)c1)c1ccc(-c2ccccc2)nc1 [Example 61, N-[3-({[1-(morpholin-4-yl)cyclopropyl]carbonyl}amino)-4-(trifluoromethoxy)phenyl]-6-phenylnicotinamide]	≥ 50 µM	–
O=C(CN1CCN(C2CC2)CC1)Nc1cc(C(=O)Nc2ccc(-c3ccccc3F)nc2)ccc1OC(F)(F)F [Example 63, 3-{[(4-cyclopropylpiperazin-1-yl)acetyl]amino}-N-[6-(2-fluorophenyl)pyridin-3-yl]-4-(trifluoromethoxy)benzamide]	≥ 50 µM	–
CC(C(=O)Nc1cc(C(=O)Nc2ccc(-c3ccccc3F)nc2)ccc1OC(F)(F)F)N1CCN(C)CC1 (centres unmarked) [Example 64, N-[6-(2-fluorophenyl)pyridin-3-yl]-3-{[2-(4-methylpiperazin-1-yl)propanoyl]amino}-4-(trifluoromethoxy)benzamide]	≥ 50 µM	–
O=C(Nc1ccc(-c2ccccc2F)nc1)c1ccc(OC(F)(F)F)c(NC(=O)C2(N3CCN(C4CC4)CC3)CC2)c1 [Example 67, 3-({[1-(4-cyclopropylpiperazin-1-yl)cyclopropyl]carbonyl}amino)-N-[6-(2-fluorophenyl)pyridin-3-yl]-4-(trifluoromethoxy)benzamide]	≥ 50 µM	–
O=C(Nc1ccc(-c2ccccc2F)nc1)c1ccc(OC(F)(F)F)c(NC(=O)C2(N3CCOCC3)CC2)c1 [Example 68, N-[6-(2-fluorophenyl)pyridin-3-yl]-3-({[1-(morpholin-4-yl)cyclopropyl]carbonyl}amino)-4-(trifluoromethoxy)benzamide]	≥ 50 µM	–
CN1CCN(CC(=O)Nc2cc(C(=O)Nc3nnc(-c4cccc(C(F)(F)F)c4)s3)ccc2OC(F)(F)F)CC1 [Example 272, 3-{[(4-methylpiperazin-1-yl)acetyl]amino}-4-(trifluoromethoxy)-N-{5-[3-(trifluoromethyl)phenyl]-1,3,4-thiadiazol-2-yl}benzamide]	–	IC50 [2]: 0.545 µM; IC50 [3]: ≥ 50 µM
CC[C@H](C(=O)Nc1cc(C(=O)Nc2nnc(-c3ccccc3)s2)ccc1OC(F)(F)F)N1CCN(C)CC1 [Example 274, 3-{[(2R)-2-(4-methylpiperazin-1-yl)butanoyl]amino}-N-(5-phenyl-1,3,4-thiadiazol-2-yl)-4-(trifluoromethoxy)benzamide]	–	IC50 [2]: 3.02 µM; IC50 [3]: ≥ 50 µM
O=C(Nc1ccc([N+](=O)[O-])cc1Cl)c1cc(Cl)ccc1O [Ref., niclosamide, reference compound]	–	IC50 [2]: 1.38 µM; IC50 [3]: 3.1 µM
